# Measured values reported in ChEMBL document CHEMBL1201862, “PubChem BioAssay data set” (2004).
# Activity calls are given as the source filed them.
# What was measured:
# [1] = growth suppression of PTEN-null colon cells, dose response, cell-based, HCT116 PTEN knockout (AID 1047); format: functional;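 also: HCT116 colon tumor cells with PTEN knocked out; cells exposed to compound for 60 hours before readout; potency for loss of cell viability measured by luminescence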
# [2] = target: Cytochrome P450 3A4 (Homo sapiens, UniProt P08684);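 also: CYP3A4 tested as one member of a cytochrome P450 panel screen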
# Cytochrome P450 3A4, sequence (P08684 whole entry): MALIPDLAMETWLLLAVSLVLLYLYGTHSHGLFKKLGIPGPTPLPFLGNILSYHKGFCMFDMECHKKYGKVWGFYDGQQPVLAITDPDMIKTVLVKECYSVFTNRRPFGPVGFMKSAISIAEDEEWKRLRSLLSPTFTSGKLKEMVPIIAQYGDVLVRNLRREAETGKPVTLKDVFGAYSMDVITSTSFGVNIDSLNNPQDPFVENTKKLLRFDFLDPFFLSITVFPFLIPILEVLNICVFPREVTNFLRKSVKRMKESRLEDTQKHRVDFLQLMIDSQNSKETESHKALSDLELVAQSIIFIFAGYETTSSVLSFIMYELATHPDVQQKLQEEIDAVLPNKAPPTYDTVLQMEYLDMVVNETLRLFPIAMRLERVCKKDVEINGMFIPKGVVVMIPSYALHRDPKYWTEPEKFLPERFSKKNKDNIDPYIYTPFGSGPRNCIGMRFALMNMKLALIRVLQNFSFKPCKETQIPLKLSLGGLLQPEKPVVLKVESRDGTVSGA
# [3] = growth suppression of beta-catenin-knockout colon cells, dose response, cell-based, HCT116, human colon tumor (AID 1045); format: functional;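 also: HCT116 colon tumor cells with beta catenin knocked out; cells exposed to compound for 60 hours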
# [4] = target: T1, Corticotropin-releasing factor receptor 2/Corticotropin-releasing factor-binding protein (Homo sapiens, UniProt P24387+Q13324); test: activators of CRF receptor 2 with binding protein – uHTS hits, confirmation (AID 602473); format: functional; conditions: read-out: EC50_Mean
# T1 sequence (Q13324 whole entry): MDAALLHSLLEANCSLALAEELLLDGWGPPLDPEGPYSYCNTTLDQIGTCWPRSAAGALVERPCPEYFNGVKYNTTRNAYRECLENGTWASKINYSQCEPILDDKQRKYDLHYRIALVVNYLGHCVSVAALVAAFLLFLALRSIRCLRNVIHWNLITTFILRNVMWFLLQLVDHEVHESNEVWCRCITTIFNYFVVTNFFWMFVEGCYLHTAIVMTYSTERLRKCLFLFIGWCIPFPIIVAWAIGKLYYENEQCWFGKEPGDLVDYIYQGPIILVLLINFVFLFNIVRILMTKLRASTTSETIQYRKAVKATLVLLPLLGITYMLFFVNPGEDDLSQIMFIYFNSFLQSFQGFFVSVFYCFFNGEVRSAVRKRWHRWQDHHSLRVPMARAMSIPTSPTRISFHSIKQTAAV
# T1 sequence (P24387 whole entry): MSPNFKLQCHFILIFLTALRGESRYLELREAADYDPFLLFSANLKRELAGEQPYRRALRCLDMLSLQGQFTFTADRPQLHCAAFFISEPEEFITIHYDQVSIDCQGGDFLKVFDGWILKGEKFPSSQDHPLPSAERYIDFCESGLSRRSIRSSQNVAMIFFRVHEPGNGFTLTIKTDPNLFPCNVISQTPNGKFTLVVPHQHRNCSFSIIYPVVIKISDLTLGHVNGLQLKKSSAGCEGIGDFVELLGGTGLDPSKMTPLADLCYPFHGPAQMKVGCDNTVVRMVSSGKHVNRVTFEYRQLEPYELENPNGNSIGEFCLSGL
# [5] = target: Luciferin 4-monooxygenase (Photinus pyralis, UniProt P08659); test: firefly luciferase enzyme inhibitors, dose response, biochemical, luminescence (AID 1891)
# Luciferin 4-monooxygenase, sequence (P08659 whole entry): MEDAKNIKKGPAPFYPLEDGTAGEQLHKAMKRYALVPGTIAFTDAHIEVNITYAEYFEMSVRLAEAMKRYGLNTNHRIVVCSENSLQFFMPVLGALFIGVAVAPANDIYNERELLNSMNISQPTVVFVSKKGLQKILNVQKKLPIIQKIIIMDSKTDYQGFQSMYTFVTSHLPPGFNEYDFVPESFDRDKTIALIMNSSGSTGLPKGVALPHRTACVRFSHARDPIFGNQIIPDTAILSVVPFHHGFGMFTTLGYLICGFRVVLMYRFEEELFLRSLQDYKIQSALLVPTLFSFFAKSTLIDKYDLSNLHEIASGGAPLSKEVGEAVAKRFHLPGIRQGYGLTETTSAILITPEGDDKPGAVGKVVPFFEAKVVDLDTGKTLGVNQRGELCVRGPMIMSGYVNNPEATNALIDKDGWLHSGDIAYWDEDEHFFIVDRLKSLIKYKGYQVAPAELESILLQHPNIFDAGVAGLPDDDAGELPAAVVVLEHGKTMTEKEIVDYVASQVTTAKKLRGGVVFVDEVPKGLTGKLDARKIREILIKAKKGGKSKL
# [6] = Luminescence Cell-Based Dose Confirmation HTS to Identify Inhibitors of Platelet Dense Granule Release. [Related pubchem assays: 1663 (Primary HTS), 1678 (Summary of Project)]; format: functional
# [7] = target: T2, Streptokinase A (Streptococcus pyogenes serotype M1, UniProt P10520); test: S. pyogenes streptokinase expression inhibitors, potency, dose response, plasminogen activation absorbance, OD405 (AID 1914); format: functional, Streptococcus pyogenes M1 GAS;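 also: secreted streptokinase activity via plasminogen activation per viability signal from cell pellet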
# T2 sequence (P10520 whole entry): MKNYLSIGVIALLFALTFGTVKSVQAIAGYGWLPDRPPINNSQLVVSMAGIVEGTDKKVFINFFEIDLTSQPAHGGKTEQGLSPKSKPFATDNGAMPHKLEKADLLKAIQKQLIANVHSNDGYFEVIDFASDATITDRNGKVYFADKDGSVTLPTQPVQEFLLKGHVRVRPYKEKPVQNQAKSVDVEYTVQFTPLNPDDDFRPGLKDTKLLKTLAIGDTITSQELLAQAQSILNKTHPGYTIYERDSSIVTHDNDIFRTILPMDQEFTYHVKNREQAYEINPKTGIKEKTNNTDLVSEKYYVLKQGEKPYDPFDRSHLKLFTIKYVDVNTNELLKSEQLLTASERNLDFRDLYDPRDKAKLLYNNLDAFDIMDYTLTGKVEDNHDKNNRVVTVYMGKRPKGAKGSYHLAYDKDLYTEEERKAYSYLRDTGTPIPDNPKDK
# [8] = system: Streptococcus sp. 'group A'; test: growth inhibition of control SK(-) GAS strain, dose response, counter-screen for streptokinase expression inhibitor project, luminescence, kanamycin, BacTiterGlo, confirmation (AID 1900); format: functional, organism-based
# [9] = system: Streptococcus; test: Group A Streptococcus viability loss, dose response, counter-screen for streptokinase expression inhibitor project, luminescence, BacTiterGlo (AID 1915); format: functional, organism-based;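 also: potency for reduction of bacterial viability or growth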
# [10] = cells; format: functional
# [11] = Shn3 3'UTR reporter inhibitors, dose response, cell-based, Clone20 osteoblasts, firefly luciferase, cherry-picked (AID 624132); format: functional;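 also: firefly luciferase luminescence from reporter carrying the Shn3 3'UTR in osteoblasts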
# [12] = control 3'UTR Renilla luciferase suppression, dose response, counter-screen for Shn3 inhibitor project, cell-based, Clone20-Shn3RL, cherry-picked (AID 624133); format: functional
# [13] = target: T3, Cytochrome P450 1A2 (Homo sapiens, UniProt P05177);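 also: PubChem cytochrome P450 panel assay, CYP1A2 panel member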
# T3 sequence (P05177 whole entry): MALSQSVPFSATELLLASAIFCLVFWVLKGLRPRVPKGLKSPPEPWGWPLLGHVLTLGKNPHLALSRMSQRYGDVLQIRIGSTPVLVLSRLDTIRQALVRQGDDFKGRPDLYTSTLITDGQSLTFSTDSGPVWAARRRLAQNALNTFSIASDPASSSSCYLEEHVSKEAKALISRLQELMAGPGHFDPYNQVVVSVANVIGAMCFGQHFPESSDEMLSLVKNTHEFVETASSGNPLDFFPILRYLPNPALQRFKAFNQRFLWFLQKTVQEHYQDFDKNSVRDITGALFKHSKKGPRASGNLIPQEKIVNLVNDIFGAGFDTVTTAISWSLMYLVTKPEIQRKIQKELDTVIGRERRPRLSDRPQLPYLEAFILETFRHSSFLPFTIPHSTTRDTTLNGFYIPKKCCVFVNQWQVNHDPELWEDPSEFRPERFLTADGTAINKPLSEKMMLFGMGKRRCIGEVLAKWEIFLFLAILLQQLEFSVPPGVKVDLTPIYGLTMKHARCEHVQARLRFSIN
# [14] = target: Cytochrome P450 2C9 (Homo sapiens, UniProt P11712)
# Cytochrome P450 2C9, sequence (P11712 whole entry): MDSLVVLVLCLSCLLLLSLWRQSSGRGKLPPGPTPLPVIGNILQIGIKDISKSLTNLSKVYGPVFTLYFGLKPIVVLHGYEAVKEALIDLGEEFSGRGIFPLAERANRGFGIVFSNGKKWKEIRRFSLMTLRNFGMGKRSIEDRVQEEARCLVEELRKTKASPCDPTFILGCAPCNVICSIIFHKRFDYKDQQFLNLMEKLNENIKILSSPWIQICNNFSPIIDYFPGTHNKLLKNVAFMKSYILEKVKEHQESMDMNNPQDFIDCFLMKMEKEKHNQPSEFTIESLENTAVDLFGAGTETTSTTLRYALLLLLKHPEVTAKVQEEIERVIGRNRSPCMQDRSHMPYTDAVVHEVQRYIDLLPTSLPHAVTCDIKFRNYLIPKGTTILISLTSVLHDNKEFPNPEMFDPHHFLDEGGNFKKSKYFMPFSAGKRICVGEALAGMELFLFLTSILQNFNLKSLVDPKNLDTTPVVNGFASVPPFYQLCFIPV
# [15] = target: Cytochrome P450 2D6 (Homo sapiens, UniProt P10635);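 also: CYP2D6 member of a cytochrome P450 panel assay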
# Cytochrome P450 2D6, sequence (P10635 whole entry): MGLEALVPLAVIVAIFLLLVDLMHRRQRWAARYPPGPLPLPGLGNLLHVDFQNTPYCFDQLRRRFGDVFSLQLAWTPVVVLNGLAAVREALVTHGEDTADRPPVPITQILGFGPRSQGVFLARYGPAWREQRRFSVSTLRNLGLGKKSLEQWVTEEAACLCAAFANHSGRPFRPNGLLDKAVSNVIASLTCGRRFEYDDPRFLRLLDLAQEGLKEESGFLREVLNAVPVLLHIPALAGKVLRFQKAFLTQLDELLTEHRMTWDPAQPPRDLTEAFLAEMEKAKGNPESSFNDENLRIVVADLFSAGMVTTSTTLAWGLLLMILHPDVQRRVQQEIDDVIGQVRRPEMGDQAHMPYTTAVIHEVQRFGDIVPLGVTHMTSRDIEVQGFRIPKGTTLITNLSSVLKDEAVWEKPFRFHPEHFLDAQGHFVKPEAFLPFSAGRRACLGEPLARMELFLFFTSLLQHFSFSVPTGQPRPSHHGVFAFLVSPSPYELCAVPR
smiles,measurement,setting,value
O=C(Nc1cccc(C(F)(F)F)c1)N(Cc1ccc(Cl)cc1)CC(O)C(F)(F)F (stereo not drawn),EC50,[1],19.6 µM (active)
same,AC50,[2],22.4 µM (inconclusive)
same,EC50,[3],23.8 µM (active)
CC(C)NC(=S)NC(=O)c1ccc(-c2ccccc2)cc1,EC50,[4],> 53 µM (inactive)
N#CCCn1c(=O)c(-c2ccc(Cl)cc2)nc2cnc(N3CCNCC3)nc21,AC50,[2],25.1 µM (inconclusive)
Cc1cc(C)c(C)c(OCC(O)CN2CCN(c3ccccn3)CC2)c1 (stereo not drawn),EC50,[5],> 112 µM (not active)
same,EC50,[6],> 112 µM (not active)
O=C(NCC1(N2CCCCC2)CCCCC1)c1ccc(NS(=O)(=O)c2ccc(F)cc2)cc1,EC50,[5],> 112 µM (not active)
same,EC50,[6],> 112 µM (not active)
CC(C)OC(=O)c1c(NS(=O)(=O)c2ccccc2)sc2c1CCCC2,EC50,[7],> 150 µM (not active)
same,EC50,[8],3.69 µM (active)
same,EC50,[9],7.93 µM (active)
same,EC50,[4],14 µM (active)
Cc1cccc(Cc2cnc(NC(=O)C3=NCCN3)s2)c1,IC50,[10],4.6 µM (active)
Cc1ccc(CNC(=O)c2cc(-c3ccccc3C)nn2CC2CC(c3cccnc3)=NO2)cc1 (stereo not drawn),AC50,[11],> 70 µM (inactive)
same,AC50,[12],29 µM (active)
COc1cc2c(cc1OC)CN(CCC(=O)c1ccc(Br)cc1)CC2,IC50,[10],16.5 µM (active)
CCOC(=O)COc1ccc2c(=O)c(-c3ccccc3)coc2c1,IC50,[10],< 0.1 µM (active)
Cc1cc(-n2ccc(=O)[nH]c2=O)nc(-c2ccccc2)n1,EC50,[5],> 112 µM (not active)
same,EC50,[6],15.4 µM (active)
O=C(CN1CCN(c2ccccc2)CC1)N1N=CCC1c1ccccc1 (stereo not drawn),EC50,[5],> 112 µM (not active)
same,EC50,[6],> 112 µM (not active)
COc1ccc(-c2nnc(-c3ccccc3)o2)cc1OC,EC50,[5],> 112 µM (not active)
same,EC50,[6],72.5 µM (active)
CC1(C)CO[C@H](CC(=O)O)CN1,AC50,[13],31.6 µM (inconclusive)
same,AC50,[14],39.8 µM (inconclusive)
Cc1nc2ncnn2c(C)c1CCC(=O)NCCC1=CCCCC1,AC50,[14],14.1 µM (inconclusive)
same,AC50,[2],15.8 µM (inconclusive)
N[C@H](C(=O)O)c1cccc(O)c1,AC50,[13],39.8 µM (inconclusive)
COc1cccc(C2C3=C(CC(C)(C)CC3=O)OC(N)=C2[N+](=O)[O-])c1 (stereo not drawn),AC50,[14],12.6 µM (inconclusive)
same,AC50,[2],15.8 µM (inconclusive)
O=C(Nc1ccccc1)N1CC[C@@]2(CCCN(C(=O)c3cccc(F)c3)C2)C1,AC50,[2],25.1 µM (inconclusive)
CN(C)c1ccc(/C=N/NC(=O)c2ccnn2C)cc1,EC50,[5],6.24 µM (active)
same,EC50,[6],1.32 µM (active)
CC(C)N1CCC(=NNC(=O)c2ccc(Br)o2)CC1,AC50,[13],17.8 µM (inconclusive)
same,AC50,[15],10 µM (inconclusive)
O=C(CSc1nnc(SCc2ccc(F)cc2)s1)Nc1ccc(C(=O)O)cc1,EC50,[5],> 112 µM (not active)
same,EC50,[6],39.4 µM (active)
